The results in this text go back to PubChem BioAssay AID743283 (The Scripps Research Institute Molecular Screening Center, 2014).

In general, IC50 refers to the concentration needed to halve the response being measured.

Activity calls are given as the source filed them.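 How the source made its calls: active means IC50 at or below 10 µM; inactive means IC50 above 10 µM.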 A value given as a limit tells only on which side of the number the result lay.

The test system of this experiment is HEK293 Gal4-VP16 luciferase reporter counterscreen. The experiment can be described thus: VP16-driven transactivation reporter suppression potency – cell-based, luminescence, HEK293, powder samples, round 000, counter-screen for COUP-TFII inhibitor project, late-stage follow-up (AID 743283).
In the case of `O=S(=O)(NCC1CCCO1)c1ccc(-c2ccc(S(=O)(=O)NCC3CCCO3)cc2)cc1` (centres undefined), the IC50 is > 85.4 µM (inactive). Next, `Cc1sc2ncnc(NCCc3ccc(S(N)(=O)=O)cc3)c2c1C`: > 85.4 µM (inactive); `CCN(CC)S(=O)(=O)c1cccc(NC(=O)CNc2cccc(S(=O)(=O)N3CCCC3)c2)c1`: > 85.4 µM (inactive); `CCOC(=O)N1CCN(C(=O)CSCC(=O)Nc2nc(-c3ccc(-c4ccccc4)cc3)cs2)CC1`: 33.9 µM (inactive). The figure for `Clc1ccc(OCCN2CCN(c3ncnc4sccc34)CC2)cc1` is > 85.4 µM (inactive); for `CC1Cc2cc(-c3csc(NC(=O)Cc4cccs4)n3)ccc2N1S(C)(=O)=O` (centres undefined) it is 11.5 µM (inactive).

Turning to `COc1ccc(CCNc2ncnc3sc(C)cc23)cc1OC`, the IC50 is 30.2 µM (inactive). For `CC(=O)Nc1ccccc1OCC(=O)c1cc(C)n(Cc2cccs2)c1C`, the IC50 was 8.67 µM. Next, `COc1ccc(NS(=O)(=O)c2cccc(NC(=O)c3ccc(Cl)nc3)c2)cc1`: > 28.5 µM (inactive). The figure for `Cc1ccc(S(=O)(=O)CC2CSc3nc4ccccc4n32)cc1` (centres undefined) is > 85.4 µM (inactive); for `COc1ccc(OC)c(CCNC(=O)Cn2nc(C)c3c(C)n(-c4ccc(C)cc4)nc3c2=O)c1` it is > 28.5 µM (inactive); for `CCOc1cc(S(=O)(=O)NCc2ccncc2)ccc1Cl` it is > 85.4 µM (inactive). For `COc1ccc(CN(C)c2ccc(S(=O)(=O)N3CCN(C)CC3)cc2[N+](=O)[O-])cc1OC`, the IC50 was > 85.4 µM (inactive). Next, `Cc1cc(-n2nc3ccccc3n2)c2oc(SCC(=O)NC(C)(C)C)nc2c1`: 79.3 µM (inactive); `Cc1sc2ncnc(NCC3COc4ccccc4O3)c2c1C` (centres undefined): > 85.4 µM (inactive); `Cc1oc(-c2ccc(Cl)cc2)nc1CS(=O)CC(=O)NCCCN1CCN(Cc2ccccc2)CC1` (centres undefined): > 28.5 µM (inactive). Next, `CC(Nc1ncnc2ccccc12)c1ccccc1` (centres undefined): > 85.4 µM (inactive). Take `Cc1cc(-n2c(C)cc(C(=O)CSc3ncnc4ccccc34)c2C)no1`: the IC50 was > 85.4 µM (inactive). On to `Cc1ccc(OCCN2CCN(c3ncnc4sc(C)c(C)c34)CC2)cc1`, for which the IC50 was > 85.4 µM (inactive).

In the case of `CCOC(=O)C1CCCN(S(=O)(=O)c2ccc(S(=O)(=O)N(CC)CC)cc2)C1` (centres undefined), the IC50 is > 85.4 µM (inactive). On to `Cn1nccc1C(=O)NC1CCCc2c1cnn2-c1ccc(C(C)(C)C)cc1` (centres undefined), for which the IC50 is > 85.4 µM (inactive). The figure for `Cc1cc(C)c(S(=O)(=O)NCc2ccncc2)c(C)c1` is > 85.4 µM (inactive); for `Cc1nn(C)c(C)c1CN(C)S(=O)(=O)c1ccc2ccccc2c1` it is > 85.4 µM (inactive).

In the case of `COc1ccc(NS(=O)(=O)c2ccc(-c3coc(C)n3)cc2)cc1OC`, the IC50 is > 85.4 µM (inactive). The figure for `O=C(Nc1ccncc1)c1ccc(Cl)c(S(=O)(=O)N2CCc3ccccc32)c1` is 37 µM (inactive).

Take `CCC1CCCCN1C(=O)c1cc(COc2ccc3ncccc3c2)on1` (centres undefined): the IC50 is > 85.4 µM (inactive).

Take `COc1ccc(CCNc2ncnc3sccc23)cc1OC`: the IC50 was > 85.4 µM (inactive). The figure for `CN(CC1CCCO1)S(=O)(=O)c1ccc(C(=O)Nc2nc3cc4c(cc3s2)OCO4)cc1` (centres undefined) is > 42.7 µM (inactive); for `COc1ccc(C2=Nn3c([n+](C)c4ccccc43)SC2)cc1` it is > 85.4 µM (inactive).
